Molecular target: human orexin-2 receptor (Homo sapiens (Human), UniProt O43614)
Assay: FLIPR Ca2+ Flux Assay, orexin-2 receptor antagonism in CHO cells
Type: cell-based
Details: CHO cells expressing the human orexin-2 receptor; agonist 70 pM Ala-6,12 orexin-A; read-out: hOX2 FLIPR IC50
Procedure: The utility of the compounds in accordance with the present invention as orexin receptor OX1R and/or OX2R antagonists may be readily determined without undue experimentation by methodology well known in the art, including the “FLIPR Ca^2+ Flux Assay” (Okumura et al., Biochem. Biophys. Res. Comm. 280:976-981, 2001). In a typical experiment the OX1 and OX2 receptor antagonistic activity of the compounds of the present invention was determined in accordance with the following experimental method. For intracellular calcium measurements, Chinese hamster ovary (CHO) cells expressing the rat orexin-1 receptor or the human orexin-2 receptor, are grown in Iscove's modified DMEM containing 2 mM L-glutamine, […], 1% hypoxanthine-thymidine supplement, 100 U/ml penicillin, 100 μg/ml streptomycin and 10% heat-inactivated fetal calf serum (FCS). The cells are seeded at 20,000 cells/well into Becton-Dickinson black 384-well clear bottom sterile plates coated with poly-D-lysine. All reagents are from GIBCO-Invitrogen Corp. The seeded plates are incubated overnight at 37° C. and 5% CO2. Ala-6,12 human orexin-A as the agonist is prepared as a 1 mM stock solution in 1% bovine serum albumin (BSA) and diluted in assay buffer (HBSS containing 20 mM HEPES, 0.1% BSA and 2.5 mM probenecid, pH7.4) for use in the assay at a final concentration of 70 pM. Test compounds are prepared as 10 mM stock solution in DMSO, then diluted in 384-well plates, first in DMSO, then assay buffer. On the day of the assay, cells are washed 3 times with 100 μl assay buffer and then incubated for 60 min (37° C., 5% CO2) in 60 μl assay buffer containing […] Fluo-4AM ester, 0.02% pluronic acid, and 1% BSA. The dye loading solution is then aspirated and cells are washed 3 times with 100 μl assay buffer. 30 μl of that same buffer is left in each well. Within the Fluorescent Imaging Plate Reader (FLIPR, Molecular Devices), test compounds are added to the plate in a volume of 25 μl, incubated for 5 min and finally 25 μl of agonist is added. Fluorescence is measured for each well at 1 second intervals for 5 minutes and the height of each fluorescence peak is compared to the height of the fluorescence peak induced by 70 pM Ala-6,12 orexin-A with buffer in place of antagonist. For each antagonist, IC50 value (the concentration of compound needed to inhibit 50% of the agonist response) is determined. Alternatively, compound potency can be assessed by a radioligand binding assay (described in Bergman et. al. Bioorg. Med. Chem. Lett. 2008, 18, 1425-1430) in which the inhibition constant (Ki) is determined in membranes prepared from CHO cells expressing either the OX1 or OX2 receptor. The intrinsic orexin receptor antagonist activity of a compound which may be used in the present invention may be determined by these assays.

human orexin-2 receptor, sequence (O43614 whole entry): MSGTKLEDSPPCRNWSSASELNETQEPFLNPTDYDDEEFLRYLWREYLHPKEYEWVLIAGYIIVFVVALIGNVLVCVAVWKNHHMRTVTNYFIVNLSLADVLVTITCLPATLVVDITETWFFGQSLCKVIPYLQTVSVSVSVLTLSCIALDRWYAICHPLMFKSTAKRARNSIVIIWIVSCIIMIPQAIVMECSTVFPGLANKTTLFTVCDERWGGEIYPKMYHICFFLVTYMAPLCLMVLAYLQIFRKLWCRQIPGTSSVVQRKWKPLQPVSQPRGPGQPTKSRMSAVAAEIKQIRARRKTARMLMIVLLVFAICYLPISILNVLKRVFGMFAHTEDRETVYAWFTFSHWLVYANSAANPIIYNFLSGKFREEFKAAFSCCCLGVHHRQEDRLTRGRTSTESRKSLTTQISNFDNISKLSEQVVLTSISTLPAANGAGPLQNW

Row | SMILES | IC50 [nM]
1 | C[C@@H]1CC[C@@H](Oc2nccn3c(C(F)F)cnc23)CN1C(=O)c1cccnc1-n1cccn1 [Example 52, (2-(1H-pyrazol-1-yl)pyridin-3-yl)((2R,5R)-5-((3-(difluoromethyl)imidazo[1,2-α]pyrazin-8-yl)oxy)-2-methylpiperidin-1-yl)methanone] | 15.8
2 | C[C@@H]1CC[C@@H](Oc2nccn3c(C(F)F)cnc23)CN1C(=O)c1ccccc1-c1cnccn1 [Example 53, ((2R,5R)-5-((3-(difluoromethyl)imidazo[1,2-α]pyrazin-8-yl)oxy)-2-methylpiperidin-1-yl)(2-(pyrazin-2-yl)phenyl)methanone] | 21.3
3 | C[C@@H]1CC[C@@H](Oc2nccn3c(C(F)F)cnc23)CN1C(=O)c1ccccc1-c1ncccn1 [Example 54, ((2R,5R)-5-((3-(difluoromethyl)imidazo[1,2-a]pyrazin-8-yl)oxy)-2-methylpiperidin-1-yl)(2-(pyrimidin-2-yl)phenyl)methanone] | 24.1
4 | C[C@@H]1CC[C@@H](Oc2nccn3c(C(F)F)cnc23)CN1C(=O)c1cscc1-c1ncccn1 [Example 55, ((2R,5R)-5-((3-(difluoromethyl)imidazo [1,2-α]pyrazin-8-yl)oxy)-2-methylpiperidin-1-yl)(4-(pyrimidin-2-yl)thiophen-3-yl)methanone] | 44.9
5 | C[C@@H]1CC[C@@H](Oc2nccn3c(C(F)F)cnc23)CN1C(=O)c1ccsc1-c1ncccn1 [Example 56, ((2R,5R)-5-((3 (difluoromethyl)imidazo [1,2-α]pyrazin-8-yl)oxy)-2-methylpiperidin-1-yl)(2-(pyrimidin-2-yl)thiophen-3-yl)methanone] | 53.7
6 | C[C@@H]1CC[C@@H](Oc2nccn3c(C(F)(F)F)cnc23)CN1C(=O)c1ccccc1-n1nccn1 [Example 57] | 13.1
7 | C[C@@H]1CC[C@@H](Oc2nccn3c(C(F)(F)F)cnc23)CN1C(=O)c1ccsc1-n1nccn1 [Example 58, (2-(2H-1,2,3-triazol-2-yl)thiophen-3-yl)((2R,5R)-2-methyl-5-((3-(trifluoromethyl)imidazo[1,2-a]pyrazin-8-yl)oxy)piperidin-1-yl)methanone] | 20.4
8 | C[C@@H]1CC[C@@H](Oc2nccn3c(C(F)(F)F)cnc23)CN1C(=O)c1ccccc1C1(C#N)CC1 [Example 59, 1-(2-((2R,5R)-2-methyl-5-((3-(trifluoromethyl)imidazo [1,2-α]pyrazin-8-yl)oxy)piperidine-1-carbonyl)phenyl) cyclopropanecarbonitrile] | 12.8
9 | C[C@@H]1CC[C@@H](Oc2nccn3c(C(F)(F)F)cnc23)CN1C(=O)c1ccccc1-n1ncnn1 [Example 60, (2-(2H-tetrazol-2-yl)phenyl)((2R,5R)-2-methyl-5-((3-(trifluoromethyl)imidazo [1,2-α]pyrazin-8-yl)oxy)piperidin-1-yl)methanone] | 19
10 | C[C@@H]1CC[C@@H](Oc2nccn3c(C(F)(F)F)cnc23)CN1C(=O)c1ccccc1CS(C)(=O)=O [Example 61, ((2R,5R)-2-methyl-5-((3-(trifluoromethyl)imidazo [1,2-α]pyrazin-8-yl)oxy)piperidin-1-yl)(2-((methylsulfonyl)methyl)phenyl)methanone] | 170
11 | C[C@@H]1CC[C@@H](Oc2nccn3c(C(F)(F)F)cnc23)CN1C(=O)c1ncccc1-c1ccccc1 [Example 62, ((2R,5R)-2-methyl-5-((3-(trifluoromethyl)imidazo [1,2-α]pyrazin-8-yl)oxy)piperidin-1-yl)(3-phenylpyridin-2-yl)methanone] | 46.7
12 | C[C@@H]1CC[C@@H](Oc2nccn3c(C(F)(F)F)cnc23)CN1C(=O)c1cccnc1OCC(F)(F)F [Example 63, ((2R,5R)-2-methyl-5-((3-(trifluoromethyl)imidazo [1,2-α]pyrazin-8-yl)oxy)piperidin-1-yl) (2-(2,2,2-trifluoroethoxy)pyridin-3-yl)methanone] | 28.2
13 | C[C@@H]1CC[C@@H](Oc2nccn3c(C(F)(F)F)cnc23)CN1C(=O)c1cccnc1OCC(F)F [Example 64, (2-(2,2-difluoroethoxy)pyridin-3-yl)((2R,5R)-2-methyl-5-((3-(trifluoromethyl)imidazo [1,2-α]pyrazin-8-yl)oxy)piperidin-1-yl)methanone] | 17.4
14 | C[C@@H]1CC[C@@H](Oc2nccn3c(C(F)(F)F)cnc23)CN1C(=O)c1cccnc1-n1cccn1 [Example 65, (2-(1H-pyrazol-1-yl)pyridin-3-yl) ((2R,5R)-2-methyl-5-((3-(trifluoromethyl)imidazo [1,2-α]pyrazin-8-yl)oxy)piperidin-1-yl)methanone] | 24
15 | C[C@@H]1CC[C@@H](Oc2nccn3c(C(F)(F)F)cnc23)CN1C(=O)c1ccccc1-c1ncccn1 [Example 66, ((2R,5R)-2-methyl-5-((3-(trifluoromethyl)imidazo[1,2-a]pyrazin-8-yl)oxy)piperidin-1-yl)(2-(pyrimidin-2-yl)phenyl)methanone] | 14.9
16 | C[C@@H]1CC[C@@H](Oc2nccn3c(C(O)C(F)F)cnc23)CN1C(=O)c1ccccc1-n1nccn1 (stereo partly drawn) [Example 67, (2-(2H-1,2,3-triazol-2-yl)phenyl)((2R,5R)-5-((3-(2,2-difluoro-1-hydroxyethyl)imidazo[1,2-a]pyrazin-8-yl)oxy)-2-methylpiperidin-1-yl)methanone] | 182
17 | CC(O)c1cnc2c(O[C@@H]3CC[C@@H](C)N(C(=O)c4ccccc4-n4nccn4)C3)nccn12 (stereo partly drawn) [Example 68, (2-(2H-1,2,3-triazol-2-yl)phenyl)((2R,5R)-5-((3-(1-hydroxyethyl)imidazo[1,2-a]pyrazin-8-yl)oxy)-2-methylpiperidin-1-yl)methanone] | 115
18 | C[C@@H]1CC[C@@H](Oc2nccn3nccc23)CN1C(=O)c1ccccc1-n1nccn1 [Example 69, (2-(2H-1,2,3-triazol-2-yl)phenyl)((2R,5R)-2-methyl-5-(pyrazolo[1,5-a]pyrazin-4-yloxy)piperidin-1-yl)methanone] | 26.8
19 | C[C@@H]1CC[C@@H](Oc2nccn3nccc23)CN1C(=O)c1ccsc1-n1nccn1 [Example 70, (2-(2H-1,2,3-triazol-2-yl)thiophen-3-yl)((2R,5R)-2-methyl-5-(pyrazolo[1,5-a]pyrazin-4-yloxy)piperidin-1-yl)methanone] | 9.8
20 | C[C@@H]1CC[C@@H](Oc2nccn3nccc23)CN1C(=O)c1cscc1-n1nccn1 [Example 71, (4-(2H-1,2,3-triazol-2-yl)thiophen-3-yl)((2R,5R)-2-methyl-5-(pyrazolo[1,5-α]pyrazin-4-yloxy)piperidin-1-yl)methanone] | 16
21 | C[C@@H]1CC[C@@H](Oc2nccn3nccc23)CN1C(=O)c1ccccc1C1(C#N)CC1 [Example 72, 1-(2-((2R,5R)-2-methyl-5-(pyrazolo[1,5-α]pyrazin-4-yloxy)piperidine-1-carbonyl)phenyl) cyclopropanecarbonitrile] | 14.3
22 | C[C@@H]1CC[C@@H](Oc2nccn3nccc23)CN1C(=O)c1ccc(F)cc1-n1nccn1 [Example 73, (4-fluoro-2-(2H-1,2,3-triazol-2-yl)phenyl)((2R,5R)-2-methyl-5-(pyrazolo[1,5-α]pyrazin-4-yloxy)piperidin-1-yl)methanone] | 14
23 | C[C@@H]1CC[C@@H](Oc2nccn3nccc23)CN1C(=O)c1cscc1-c1ncccn1 [Example 74, ((2R,5R)-2-methyl-5-(pyrazolo[1,5-α]pyrazin-4-yloxy)piperidin-1-yl)(4-(pyrimidin-2-yl)thiophen-3-yl) methanone] | 34.4
